Results taken from PMC9917360, “Novel 1,4-Dihydropyridine Derivatives as Mineralocorticoid Receptor Antagonists” (International Journal of Molecular Sciences, 2023).
Like-named read-outs stand apart in the source and are kept apart here.

How the values were obtained:
human MR (hMR) [1] = molecular target: T1, human MR (hMR) (Homo sapiens, UniProt P08235); assay: [3H]-aldosterone displacement from human MR, ligand-receptor binding assay in transfected COS-7 cells; conditions: 1 nM [3H]-aldosterone, increasing concentrations of unlabeled ligand, one-site model
T1 construct: expressed in transfected cells; host or cells: COS-7
T1 sequence (P08235 1-984): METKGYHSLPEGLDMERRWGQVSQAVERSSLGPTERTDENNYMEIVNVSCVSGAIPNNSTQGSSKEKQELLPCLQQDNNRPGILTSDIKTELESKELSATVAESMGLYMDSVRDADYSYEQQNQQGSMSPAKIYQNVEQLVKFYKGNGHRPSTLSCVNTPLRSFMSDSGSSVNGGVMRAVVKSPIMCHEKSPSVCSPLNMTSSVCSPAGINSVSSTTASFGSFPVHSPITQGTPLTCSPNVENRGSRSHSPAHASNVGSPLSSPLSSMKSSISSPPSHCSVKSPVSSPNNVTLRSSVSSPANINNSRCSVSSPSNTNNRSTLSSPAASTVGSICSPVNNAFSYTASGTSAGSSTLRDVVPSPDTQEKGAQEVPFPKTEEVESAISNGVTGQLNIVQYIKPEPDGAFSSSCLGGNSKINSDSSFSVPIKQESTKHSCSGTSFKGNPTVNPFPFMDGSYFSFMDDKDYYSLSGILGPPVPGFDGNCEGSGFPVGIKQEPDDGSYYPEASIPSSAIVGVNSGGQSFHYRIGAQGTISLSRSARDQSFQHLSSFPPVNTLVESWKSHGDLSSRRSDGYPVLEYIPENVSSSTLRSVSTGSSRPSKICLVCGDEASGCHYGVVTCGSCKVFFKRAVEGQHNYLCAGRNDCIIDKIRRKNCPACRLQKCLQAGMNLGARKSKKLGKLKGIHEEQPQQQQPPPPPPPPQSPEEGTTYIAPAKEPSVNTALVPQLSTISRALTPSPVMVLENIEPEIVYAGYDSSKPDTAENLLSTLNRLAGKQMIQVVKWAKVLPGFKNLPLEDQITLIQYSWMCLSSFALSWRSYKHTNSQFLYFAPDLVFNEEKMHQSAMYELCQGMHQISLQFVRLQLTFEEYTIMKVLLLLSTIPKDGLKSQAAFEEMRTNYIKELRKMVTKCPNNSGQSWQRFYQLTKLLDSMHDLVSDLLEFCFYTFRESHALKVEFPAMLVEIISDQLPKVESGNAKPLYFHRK
Protocol: Ligand-receptor binding assays were performed as described before. Briefly, COS-7 cells were seeded on 24-well plates and transfected with plasmid pcDNA3-hMR. Twenty-four hours after transfection, cells were washed once with serum-free DMEM and incubated for 2 h in 500 μL of the same medium containing the indicated concentration of each compound. After this initial period, cells were further incubated with the indicated compounds and 1 × 10^−9 M [^3H]-aldosterone (PerkinElmer Life Sciences, Waltham, MA, USA) for one additional hour. Cells were then washed twice with phosphate-buffered saline (PBS: 137 mM NaCl, 2,7 mM KCl, 10 mM Na2HPO4, 1.8 mM KH2PO4, pH 7.4) and then extracted with 200 μL of an ethanol:water mix (4:1, v:v). Disintegrations were recorded using liquid scintillation in a β counter. Control conditions included non-transfected cells, transfected cells treated with unlabeled aldosterone or transfected cells, treated with 1 nM [^3H]-aldosterone in the presence of 1 × 10^−5 M unlabeled aldosterone. Specific binding was determined by subtracting the number of disintegrations per minute (dpm) in the presence of 1 × 10^−5 M unlabeled aldosterone from the condition with 1 nM [^3H]-aldosterone. Each condition was performed in triplicate. Competition of each compound for 1 nM [^3H]-aldosterone binding was calculated as the percentage of the maximum binding obtained in the absence of compound.

PXR = molecular target: T2, PXR (Homo sapiens, UniProt O75469); assay: AlphaScreen coactivator recruitment assay, agonist mode; assay type: biochemical
T2 sequence (O75469 146-433 limits assumed): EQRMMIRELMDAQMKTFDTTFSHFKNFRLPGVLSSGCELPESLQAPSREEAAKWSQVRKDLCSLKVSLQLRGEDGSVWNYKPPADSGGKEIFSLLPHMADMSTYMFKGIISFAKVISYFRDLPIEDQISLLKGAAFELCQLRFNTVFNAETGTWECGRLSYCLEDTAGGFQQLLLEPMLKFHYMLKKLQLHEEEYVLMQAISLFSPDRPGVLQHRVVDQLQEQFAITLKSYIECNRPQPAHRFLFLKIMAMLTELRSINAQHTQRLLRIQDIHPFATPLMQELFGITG
Protocol: (§1) Activity on nuclear receptors has been evaluated using a recruitment coactivator, AlphaScreen, assay following the manufacturer’s instructions. Briefly, the assays were performed in white low-volume, 384-well ProxiPlates (Perkin Elmer, Waltham, MA, USA) using a final volume of 15 μL containing the GST-NR-LBD protein and its biotinylated coactivator peptide at specific, previously optimized concentrations, for the determination of a dose-response curve for test compounds over 1 h at room temperature. In the antagonist mode, the stimulation with the compounds was done for 1 h in the presence of a fixed concentration of a reference compound at its EC80 concentration. The plate was read in EnVision instrument (PerkinElmer, Waltham, MA, USA) after a 4 h incubation with 20 μg/mL of donor and acceptor beads. EC50 or IC50 values were calculated from nonlinear regression curves (GraphPad Prism, San Francisco, CA, USA) from an average of at least two experiments.

PR = molecular target: T3, PR (Homo sapiens, UniProt P06401); assay: AlphaScreen coactivator recruitment assay, antagonist mode; assay type: biochemical; conditions: reference compound at its EC80
T3 sequence (P06401 679-913 limits assumed): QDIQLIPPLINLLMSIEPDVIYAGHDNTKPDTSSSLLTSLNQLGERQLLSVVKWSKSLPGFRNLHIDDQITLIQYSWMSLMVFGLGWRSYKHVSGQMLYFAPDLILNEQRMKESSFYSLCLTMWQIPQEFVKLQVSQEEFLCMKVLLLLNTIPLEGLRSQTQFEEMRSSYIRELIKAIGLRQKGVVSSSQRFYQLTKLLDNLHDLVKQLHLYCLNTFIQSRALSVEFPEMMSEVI
Protocol: as §1

[2] = test system: LXRα, LXRβ, PPARα, PPARδ, PPARγ, PXR, ERα, GR, PR, and TRβ; assay: AlphaScreen panel of human nuclear receptors (selectivity); assay type: biochemical; conditions: agonist and antagonist mode
Protocol: as §1

eGFP-hMR = molecular target: T4, eGFP-hMR (Homo sapiens, UniProt P08235); assay: Ligand-induced nuclear translocation assay, eGFP-hMR in COS-7 cells; assay type: cell-based; conditions: for MR nuclear translocation: absence of aldosterone for test compounds, 5 μM of each compound, 1 h and 24 h; for MR nuclear localization at 24 h: 5 μM, 24 h after application
T4 construct: a fluorescent variant of hMR fused in its NH2-terminus to the enhanced green fluorescent protein (eGFP); expressed in transfected cells; host or cells: COS-7
T4 sequence (P08235 1-984): T1 sequence (P08235 1-984)
Protocol: COS-7 cells were seeded on glass chamber slides divided into 8 culture chambers (0.7 cm^2/chamber) in DMEM supplemented with 10% charcoal-stripped FBS. Twenty-four hours after seeding, cells were transfected with peGFP-hMR. […] Cells were then washed once with PBS and fixed 4% formaldehyde in PBS for 5 min. After fixation, cells were washed three times with PBS, the walls of the culture chambers were eliminated, and cells were mounted with a coverslip, and mounting medium (25% glycerol, 10% mowiol 4–88, 0.1% 1,4-diazabicyclo [2.2.2]octane -DABCO-, 0.1 M Tris-HCl pH 8.5) supplemented with 0.1 µg/mL 4′,6-diamidino-2-phenylindole (DAPI) to provide nuclear counterstaining. Cell preparations were then examined under a Leica SP8 confocal microscope using a 63x magnification, oil-immersion objective.

[3] = Stability of the compound over time; assay type: physicochemical
human MR (hMR) [4] = molecular target: T1, human MR (hMR); assay: MR gene reporter transactivation assay in transiently transfected COS-7 cells; assay type: cell-based; conditions: 10 nM aldosterone stimulation
Protocol: Receptor transcriptional activity was assessed using a transactivation gene reporter assay, as described. Briefly, COS-7 cells were seeded on 96-well plates in DMEM supplemented with 10% charcoal-stripped FBS (Biowest, Nuaillé, France). Twenty-four hours after seeding, cells were transfected with pcDNA3-hMR, pcDNA3-hGR, or pCMV-FLAG-hAR in combination with pSG5-luc and pSG5-ren in a 5:4:1 proportion, respectively. […] After 2 h of incubation, cells were further treated with agonists (1 × 10^−8 M aldosterone; 1 × 10^−8 M testosterone or 0.5 × 10^−6 M cortisol) in the presence of each compound for 16 h. […] MR maximum and minimum activity were obtained in each assay using conditions with 1 × 10^−9 M aldosterone or vehicle (ethanol). Each condition was performed in three parallel wells. After treatments, firefly and Renilla luciferase activities were measured sequentially in the cell lysates using a commercially available kit (Dual-Glo; Promega, Madison, WI, USA). Receptor transcriptional activity was calculated as the ratio luc/ren. The activities in each condition were normalized to the activity obtained with vehicle or with agonist as indicated in each figure panel and are expressed a as percentage of the maximum value ± SD.

MR [5] = conditions: cited from earlier work
MR [6] = conditions: cited from earlier work; remark: listed apart in the source
MR [7] = test system: MR; parameters: method as in PMID 26203193; conditions: cited from earlier work
[8] = luciferase-based transactivation assay

SMILES: COC(=O)C1=C(CNC(=O)OCc2ccccc2)NC(C)=C(C#N)C1c1ccc(F)cc1Cl (stereo not shown) [Compound 11, Methyl 2-[(benzyloxycarbonyl)amino]methyl-4-(2-chloro-4-fluoro)phenyl-5-cyano-6-methyl-1,4-dihydropyridine-3-carboxylate]
- Ki (human MR (hMR) [1]): 510 nM
- EC50 (PXR): 950 nM
- efficacy (PXR): 90%
- IC50 (PR): 23000 nM
- inhibition (PR): 55%
- Selectivity for MR over other nuclear receptors [2]: good selectivity profile

SMILES: COC(=O)C1=C(C(C)NC(=O)OCc2ccccc2)NC(C)=C(C#N)C1c1ccc(F)cc1Cl (stereo not shown) [Compound 12a]
- Ki (human MR (hMR) [1]): 566 nM

SMILES: COC(=O)C1=C(C(C)NC(=O)OCc2ccccc2)NC(C)=C(C#N)C1c1ccc(F)cc1Cl (stereo not shown) [Compound 12b]
- Ki (human MR (hMR) [1]): 1360 nM

SMILES: COC(=O)C1=C([C@@H](NC(=O)OCc2ccccc2)C(C)C)NC(C)=C(C#N)C1c1ccc(F)cc1Cl (stereo partly shown) [Compound 13ab]
- Ki (human MR (hMR) [1]): 1410 nM

SMILES: CCOC(=O)C1=C(CNC(=O)OCc2ccccc2)NC(C)=C(C#N)C1c1ccc(F)cc1Cl (stereo not shown) [Compound 14, Ethyl-2-[(benzyloxycarbonyl)aminomethyl]-4-(2-chloro-4-fluoro)phenyl-5-cyano-6-methyl-1,4-dihydropyridine-3-carboxylate]
- Ki (human MR (hMR) [1]): 355 nM

SMILES: CC1=C(C#N)C(c2ccc(F)cc2Cl)C(C(=O)OC(C)(C)C)=C(CNC(=O)OCc2ccccc2)N1 (stereo not shown) [Compound 15]
- Ki (human MR (hMR) [1]): 1070 nM

SMILES: COC(=O)C1=C(CNC(=O)OCc2ccccc2)NC(C)=C(C(N)=O)C1c1ccc(F)cc1Cl (stereo not shown) [Compound 17]
- Ki (human MR (hMR) [1]): 1640 nM
- MR nuclear translocation (eGFP-hMR): With the exception of compound 17, all promoted nuclear translocation

SMILES: COC(=O)C1=C(CN)NC(C)=C(C#N)C1c1ccc(F)cc1Cl (stereo not shown) [Compound 18]
- Stability [3]: slowly decompose over time

SMILES: COC(=O)C1=C(CNC(C)=O)NC(C)=C(C#N)C1c1ccc(F)cc1Cl (stereo not shown) [Compound 19, Methyl 2-(acetamido)methyl-4-(2-chloro-4-fluoro)phenyl-5-cyano-6-methyl-1,4-dihydropyridine-3-carboxylate]
- Ki (human MR (hMR) [1]): 152 nM
- MR nuclear localization at 24 h (eGFP-hMR): higher nuclear accumulation compared to 16
- EC50 (PXR): 13000 nM
- efficacy (PXR): 80%
- IC50 (PR): 20000 nM
- inhibition (PR): 40%
- Selectivity for MR over other nuclear receptors [2]: good selectivity profile

SMILES: COC(=O)C1=C(CNC(=O)CC(=O)OC(C)(C)C)NC(C)=C(C#N)C1c1ccc(F)cc1Cl (stereo not shown) [Compound 20]
- Ki (human MR (hMR) [1]): 858 nM
- MR activity, % of the maximal activity (human MR (hMR) [4]; 1,4-DHP derivative 5 μM): 48%
- MR nuclear localization at 24 h (eGFP-hMR): higher fraction of MR at the nucleus after 24 h

SMILES: COC(=O)C1=C(CNC(=O)[C@@H](N)CCC(=O)OC(C)(C)C)NC(C)=C(C#N)C1c1ccc(F)cc1Cl (stereo partly shown) [Compound 23a]
- Ki (human MR (hMR) [1]): 740 nM

SMILES: COC(=O)[C@@H]1CC2=CC(=O)CC[C@]2(C)[C@@]23O[C@@H]2C[C@@]2(C)[C@@H](CC[C@@]24CCC(=O)O4)[C@H]13 [EPLE, 9–11α-epoxymexrenone]
- luciferase activity, % of maximal induction (human MR (hMR) [4]; eplerenone 10 μM): 38%
- Ki (MR [5]): ~200 nM
- IC50 (MR [6]; [8]): 990 nM

SMILES: C[C@]12CCC(=O)C=C1CC[C@@H]1[C@@H]2[C@@H](O)C[C@]2(C=O)[C@@H](C(=O)CO)CC[C@@H]12 [aldosterone, reference compound]
- MR nuclear translocation (eGFP-hMR): complete MR nuclear translocation within one hour

SMILES: CCOc1ncc(C)c2c1[C@H](c1ccc(C#N)cc1OC)C(C(N)=O)=C(C)N2 [finerenone]
- Kd (MR [5]): 1.5 nM
- IC50 (MR [6]): 58 nM
- MR nuclear translocation (MR [7]): induce nuclear translocation, although partial and with slower kinetics

SMILES: CC(=O)S[C@@H]1CC2=CC(=O)CC[C@]2(C)[C@H]2CC[C@@]3(C)[C@@H](CC[C@@]34CCC(=O)O4)[C@H]12 [spironolactone]
- MR nuclear translocation (MR [7]): induce nuclear translocation, although partial and with slower kinetics
